From patent publication US20230167118A1, “DEGRADATION OF BRUTON'S TYROSINE KINASE (BTK) BY CONJUGATION OF BTK INIDBITORS WITH E3 LIGASE LIGAND AND METHODS OF USE” (BEIGENE, LTD., priority 2020, published 2023)
Counter-ions that a name gives are not always drawn.

Experiments:
HEK-293 cells = assay: HEK-293 Cytotoxicity Assay (CellTiter-Glo); type: cell-based; conditions: Homo sapiens, HEK293, 72 h incubation, CellTiter-Glo luminescence
Description: HEK-293 Cytotoxicity Assay
HEK-293 cells are treated with compounds diluted in 0.2% DMSO, dilution is done according to the following protocol: (1) make 500× stock solution in DMSO from 5 mM by 4-fold dilution, total 8 doses were included; (2) make 2× solution in cell culture medium by transferring 0.5 ul 500× stock solution into 125 ul medium; (3) 50 ul of 2× solution is added to cells and incubate for 72 h.
Add 25 μl of the CellTiter-Glo®Reagent [I (Promega)—Cat No. G7572] to each well in the 96-well plate. Mix contents for 2 minutes on an orbital shaker to induce cell lysis. Allow the plate to incubate at room temperature for 10 minutes to stabilize luminescent signal. Record luminescence on BMG PheraStar with luminescence protocol.
(§1) The IC50 value of a compound can be obtained by fitting the following equation. Y=Bottom+(TOP−Bottom)/(1+((IC50/X)^hillslope)) Wherein, X and Y are known values, and IC50, Hillslope, Top and Bottom are the parameters obtained by fitting with software. Y is the inhibition percentage (calculated from the equation), X is the concentration of the compound; IC50 is the concentration of the compound when the 50% inhibition is reached. The smaller the IC50 value is, the stronger the inhibitory ability of the compound is. Vice versa, the higher the IC50 value is, the weaker the ability the inhibitory ability of the compound is; Hillslope represents the slope of the fitted curve, generally around 1*; Bottom represents the minimum value of the curve obtained by data fitting, which is generally 0%±20%; Top represents the maximum value of the curve obtained by data fitting, which is generally 100%±20%. The experimental data were fitted by calculating and analyzing with Dotmatics data analysis software.

BTK = molecular target: T1, BTK (Homo sapiens, UniProt Q06187); assay: Cell Degradation: BTK degradation in TMD-8 cells, HTRF assay; type: cell-based; conditions: 6 h treatment, IC50 (DC50) of BTK degradation
T1 construct: High control=Cell group with added DMSO and without compound, indicating microplate readings without BTK degradation; endogenous in cells; host or cells: TMD-8 cells
Description: TMD-8 cells are treated with compounds in 0.2% DMSO, dilution is done according to the following protocol: (1) make 500× stock solution in DMSO from 1 mM by 6-fold dilution, total 8 doses were included; (2) make 2× solution in cell culture medium by transferring 0.5 μl 500× stock solution into 125 μl medium; (3) 15 μl of 2× solution is added to cells and incubate for 6 h.
After 6 h treatment, add […] 4×lysis buffer to each well; seal the plate and incubate 30 min at room temperature on a plate shaker; Once the cells are lysed, 16 μL of cell lysate are transferred to a PE 384-well HTRF detection plate; 4 μL of pre-mixed HTRF antibodies are added to each well; Cover the plate with a plate sealer, spin 1000 rpm for 1 min, Incubate overnight at room temperature; Read on BMG PheraStar with HTRF protocol (337 nm-665 nm-620 nm).
The inhibition (degradation) percentage of the compound was calculated by the following equation: Inhibition percentage of Compound=100-100× (Signal-low control)/(High control-low control), wherein signal=each test compound group
Dmax is the maximum percentage of inhibition (degradation).
The IC50 (DC50) value of a compound can be obtained by fitting the following equation
Y=Bottom+(TOP-Bottom)/(1+((IC50/X)^hillslope))
as §1, with “Wherein,” for “The IC50 value of a compound can be obtained by fitting the following equation. Y=Bottom+(TOP−Bottom)/(1+((IC50/X)^hillslope)) Wherein,”, “1 *;” for “1*;”

T1 sequence (Q06187 whole entry): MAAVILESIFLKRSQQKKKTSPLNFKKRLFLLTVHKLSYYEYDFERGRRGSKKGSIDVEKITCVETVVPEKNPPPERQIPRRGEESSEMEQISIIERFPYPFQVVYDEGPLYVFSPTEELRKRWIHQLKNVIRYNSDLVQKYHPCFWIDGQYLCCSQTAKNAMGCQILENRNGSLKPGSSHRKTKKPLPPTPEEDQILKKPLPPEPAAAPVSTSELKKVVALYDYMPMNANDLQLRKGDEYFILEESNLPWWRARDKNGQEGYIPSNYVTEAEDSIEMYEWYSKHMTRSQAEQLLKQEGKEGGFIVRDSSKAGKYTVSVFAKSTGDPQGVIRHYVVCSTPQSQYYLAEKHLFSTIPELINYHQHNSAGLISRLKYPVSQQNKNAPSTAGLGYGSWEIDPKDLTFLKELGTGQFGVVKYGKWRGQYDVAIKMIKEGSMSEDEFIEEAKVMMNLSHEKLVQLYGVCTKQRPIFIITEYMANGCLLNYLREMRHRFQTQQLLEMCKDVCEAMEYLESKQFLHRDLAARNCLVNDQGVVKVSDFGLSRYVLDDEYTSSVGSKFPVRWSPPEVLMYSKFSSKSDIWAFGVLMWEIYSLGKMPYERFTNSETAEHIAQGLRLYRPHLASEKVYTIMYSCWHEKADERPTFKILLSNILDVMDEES

## Cc1cc(-c2ncnc3[nH]c(-c4ccc(N5CCN(CCC6CCN(c7ccc(N8CCC(=O)NC8=O)c(Cl)c7)CC6)CC5)nc4)cc23)ccc1[C@@H](C)NC(=O)c1nc(C(C)(C)C)no1 [Example 26, (R)-3-(tert-butyl)-N-(1-(4-(6-(6-(4-(2-(1-(3-chloro-4-(2,4-dioxotetrahydropyrimidin-1(2H)-yl)phenyl)piperidin-4-yl)ethyl)piperazin-1-yl)pyridin-3-yl)-7H-pyrrolo[2,3-d]pyrimidin-4-yl)-2-methylphenyl)ethyl)-1,2,4-oxadiazole-5-carboxamide]
HEK-293 cells
  IC50: > 10000 nM
BTK
  DC50: 4.7 nM

## COc1ccc(C(=O)N2CCC(CN3CCC(Oc4ccc(-c5cc6c(-c7ccc(CNC(=O)c8nc(C(C)(C)C)no8)c(C)c7)ncnc6[nH]5)cc4)CC3)CC2)cc1N1CCC(=O)NC1=O [Example 27, 3-(tert-butyl)-N-(4-(6-(4-((1-((1-(3-(2,4-dioxotetrahydropyrimidin-1(2H)-yl)-4-methoxybenzoyl)piperidin-4-yl)methyl)piperidin-4-yl)oxy)phenyl)-7H-pyrrolo[2,3-d]pyrimidin-4-yl)-2-methylbenzyl)-1,2,4-oxadiazole-5-carboxamide]
HEK-293 cells
  IC50: > 10000 nM
BTK
  DC50: 1.9 nM

## Cc1c(NC(=O)c2ccc(C(C)(C)O)cc2F)cc(F)cc1-c1ncnc2[nH]c(-c3ccc(C4CCN(CC5CCN(c6ccc(N7CCC(=O)NC7=O)cc6)CC5)CC4)cc3)cc12 [Example 28, N-(3-(6-(4-(1-((1-(4-(2,4-dioxotetrahydropyrimidin-1(2H)-yl)phenyl)piperidin-4-yl)methyl)piperidin-4-yl)phenyl)-7H-pyrrolo[2,3-d]pyrimidin-4-yl)-5-fluoro-2-methylphenyl)-2-fluoro-4-(2-hydroxypropan-2-yl)benzamide]
HEK-293 cells
  IC50: 4240 nM
BTK
  DC50: 1.5 nM

## C=C(C)c1ccc(C(=O)Nc2cc(F)cc(-c3ncnc4[nH]c(-c5ccc(C6CCN(CC7CCN(c8ccc(N9CCC(=O)NC9=O)cc8)CC7)CC6)cc5)cc34)c2C)c(F)c1 [Example 29, N-(3-(6-(4-(1-((1-(4-(2,4-dioxotetrahydropyrimidin-1(2H)-yl)phenyl)piperidin-4-yl)methyl)piperidin-4-yl)phenyl)-7H-pyrrolo[2,3-d]pyrimidin-4-yl)-5-fluoro-2-methylphenyl)-2-fluoro-4-(prop-1-en-2-yl)benzamide]
HEK-293 cells
  IC50: > 10000 nM
BTK
  DC50: 10.2 nM

## Cc1cc(-c2ncnc3[nH]c(-c4ccc(N5CCN(CC6CCN(c7ccc(N8CCC(=O)NC8=O)cc7)CC6)CC5)cc4)cc23)ccc1CNC(=O)c1noc(C(C)(C)C)n1 [Example 30, 5-(tert-butyl)-N-(4-(6-(4-(4-((1-(4-(2,4-dioxotetrahydropyrimidin-1(2H)-yl)phenyl)piperidin-4-yl)methyl)piperazin-1-yl)phenyl)-7H-pyrrolo[2,3-d]pyrimidin-4-yl)-2-methylbenzyl)-1,2,4-oxadiazole-3-carboxamide]
HEK-293 cells
  IC50: > 10000 nM
BTK
  DC50: 1.7 nM

## C[C@@H](NC(=O)c1noc(C(C)(C)C)n1)c1ccc(-c2ncnc3[nH]c(-c4ccc(N5CCN(CC6CCN(c7ccc(N8CCC(=O)NC8=O)cc7)CC6)CC5)cc4)cc23)cc1F [Example 31, (R)-5-(tert-butyl)-N-(1-(4-(6-(4-(4-((1-(4-(2,4-dioxotetrahydropyrimidin-1(2H)-yl)phenyl)piperidin-4-yl)methyl)piperazin-1-yl)phenyl)-7H-pyrrolo[2,3-d]pyrimidin-4-yl)-2-fluorophenyl)ethyl)-1,2,4-oxadiazole-3-carboxamide]
HEK-293 cells
  IC50: > 10000 nM
BTK
  DC50: 1.5 nM

## CC(C)(C)c1noc(C(=O)NCc2ccc(-c3ncnc4[nH]c(-c5ccc(N6CCN(CC7CCN(c8ccc(N9CCC(=O)NC9=O)cc8)CC7)CC6)cc5)cc34)cc2F)n1 [Example 32, 3-(tert-butyl)-N-(4-(6-(4-(4-((1-(4-(2,4-dioxotetrahydropyrimidin-1(2H)-yl)phenyl)piperidin-4-yl)methyl)piperazin-1-yl)phenyl)-7H-pyrrolo[2,3-d]pyrimidin-4-yl)-2-fluorobenzyl)-1,2,4-oxadiazole-5-carboxamide]
HEK-293 cells
  IC50: > 10000 nM
BTK
  DC50: 1.7 nM

## C[C@@H](NC(=O)c1nc(C(C)(C)C)no1)c1ccc(-c2ncnc3[nH]c(-c4ccc(N5CCN(CC6CCN(c7ccc(N8CCC(=O)NC8=O)cc7)CC6)CC5)nc4)cc23)cc1F [Example 33, (R)-3-(tert-butyl)-N-(1-(4-(6-(6-(4-((1-(4-(2,4-dioxotetrahydropyrimidin-1(2H)-yl)phenyl)piperidin-4-yl)methyl)piperazin-1-yl)pyridin-3-yl)-7H-pyrrolo[2,3-d]pyrimidin-4-yl)-2-fluorophenyl)ethyl)-1,2,4-oxadiazole-5-carboxamide]
HEK-293 cells
  IC50: > 10000 nM
BTK
  DC50: 1.7 nM

## C[C@@H](NC(=O)c1noc(C(C)(C)C)n1)c1ccc(-c2ncnc3[nH]c(-c4ccc(N5CCN(CC6CCN(c7ccc(N8CCC(=O)NC8=O)cc7)CC6)CC5)nc4)cc23)cc1F [Example 34, (R)-5-(tert-butyl)-N-(1-(4-(6-(6-(4-((1-(4-(2,4-dioxotetrahydropyrimidin-1(2H)-yl)phenyl)piperidin-4-yl)methyl)piperazin-1-yl)pyridin-3-yl)-7H-pyrrolo[2,3-d]pyrimidin-4-yl)-2-fluorophenyl)ethyl)-1,2,4-oxadiazole-3-carboxamide]
HEK-293 cells
  IC50: > 10000 nM
BTK
  DC50: 1.2 nM

## Cc1cc(-c2ncnc3[nH]c(-c4ccc(N5CCN(CC6CCN(c7ccc(N8CCC(=O)NC8=O)cc7)CC6)CC5)cc4)cc23)ccc1CNC(=O)c1cnn(C(C)(C)C)c1 [Example 35, 1-(tert-butyl)-N-(4-(6-(4-(4-((1-(4-(2,4-dioxotetrahydropyrimidin-1(2H)-yl)phenyl)piperidin-4-yl)methyl)piperazin-1-yl)phenyl)-7H-pyrrolo[2,3-d]pyrimidin-4-yl)-2-methylbenzyl)-1H-pyrazole-4-carboxamide]
HEK-293 cells
  IC50: > 10000 nM
BTK
  DC50: 0.63 nM

## Cc1cc(CNC(=O)c2ccc(C(C)(C)O)cc2F)c(F)cc1-c1ncnc2[nH]c(-c3ccc(C4CCN(CC5CCN(c6ccc(N7CCC(=O)NC7=O)cc6)CC5)CC4)cc3)cc12 [Example 36, N-(4-(6-(4-(1-((1-(4-(2,4-dioxotetrahydropyrimidin-1(2H)-yl)phenyl)piperidin-4-yl)methyl)piperidin-4-yl)phenyl)-7H-pyrrolo[2,3-d]pyrimidin-4-yl)-2-fluoro-5-methylbenzyl)-2-fluoro-4-(2-hydroxypropan-2-yl)benzamide]
HEK-293 cells
  IC50: > 10000 nM
BTK
  DC50: 1.5 nM

## Cc1cc(-c2ncnc3[nH]c(-c4ccc(N5CCN(CC6CCN(c7ccc(N8CCC(=O)NC8=O)cc7)CC6)CC5)cc4)cc23)ccc1CNC(=O)c1cn(C(C)(C)C)nn1 [Example 37, 1-(tert-butyl)-N-(4-(6-(4-(4-((1-(4-(2,4-dioxotetrahydropyrimidin-1(2H)-yl)phenyl)piperidin-4-yl)methyl)piperazin-1-yl)phenyl)-7H-pyrrolo[2,3-d]pyrimidin-4-yl)-2-methylbenzyl)-1H-1,2,3-triazole-4-carboxamide]
HEK-293 cells
  IC50: > 10000 nM
BTK
  DC50: 1.2 nM

## Cc1cc(-c2ncnc3[nH]c(-c4ccc(N5CCN(CC6CCN(c7ccc(N8CCC(=O)NC8=O)cc7)CC6)CC5)c(F)c4)cc23)ccc1[C@@H](C)NC(=O)c1nc(C(C)(C)C)no1 [Example 38, (R)-3-(tert-butyl)-N-(1-(4-(6-(4-(4-((1-(4-(2,4-dioxotetrahydropyrimidin-1(2H)-yl)phenyl)piperidin-4-yl)methyl)piperazin-1-yl)-3-fluorophenyl)-7H-pyrrolo[2,3-d]pyrimidin-4-yl)-2-methylphenyl)ethyl)-1,2,4-oxadiazole-5-carboxamide, Formate]
HEK-293 cells
  IC50: > 10000 nM
BTK
  DC50: 2.1 nM
